Test results from PMC2984425, “Safety and pharmacokinetics of novel selective vascular endothelial growth factor receptor-2 inhibitor YN968D1 in patients with advanced malignancies” (BMC Cancer, 2010).

System: patients with advanced solid tumors
Assay: Treatment-related adverse events graded by NCI-CTC v3.0
Assay type: in vivo, human
Procedure: Medical records and laboratory tests were obtained during screening. Physical examination, routine laboratory evaluations, and performance status were assessed at baseline and at specified time points throughout the trial. AEs and concomitant medications were recorded at the end of each cycle. The safety evaluation period extended through 30 days from the last dose of study drug or through recovery to grade 1 or better from all acute toxicities associated with drug administration. Toxicity was evaluated and graded according to the NCI-CTC for Adverse Events, version 3.0.

For `N#CC1(c2ccc(NC(=O)c3cccnc3NCc3ccncc3)cc2)CCCC1` [apatinib], the “Hoarseness grade 1-2, No.” value (850 mg cohort) was 1, the “Hyperbilirubinemia grade 1-2, %” value (850 mg cohort) was 23.1% and the “Hyperbilirubinemia grade 1-2, No.” value (850 mg cohort) was 3. The “Hypertension grade 1-2, %” value (850 mg cohort) was 69.2%, the “Hypertension grade 1-2, No.” value (850 mg cohort) was 9 and the “Infection grade 1-2, %” value (850 mg cohort) was 23.1%. For the same compound, the “Infection grade 1-2, No.” value (850 mg cohort) was 3, the “Mucosal ulcers grade 1-2, %” value (850 mg cohort) was 15.4% and the “Mucosal ulcers grade 1-2, No.” value (850 mg cohort) was 2. For the same compound, the “Neutropenia grade 1-2, %” value (850 mg cohort) was 30.8%, the “Neutropenia grade 1-2, No.” value (850 mg cohort) was 4 and the “Neutropenia grade 3-4, %” value (850 mg cohort) was 15.4%. The “Neutropenia grade 3-4, No.” value (850 mg cohort) was 2, the “Pain grade 1-2, %” value (850 mg cohort) was 23.1% and the “Pain grade 1-2, No.” value (850 mg cohort) was 3. For the same compound, the “Proteinuria grade 1-2, %” value (850 mg cohort) was 38.5%, the “Proteinuria grade 1-2, No.” value (850 mg cohort) was 5 and the “Proteinuria grade 3-4, %” value (850 mg cohort) was 7.7%. For the same compound, the “Proteinuria grade 3-4, No.” value (850 mg cohort) was 1, the “Rash grade 1-2, %” value (850 mg cohort) was 7.7% and the “Rash grade 1-2, No.” value (850 mg cohort) was 1. For the same compound, the “Thrombocytopenia grade 1-2, %” value (850 mg cohort) was 15.4%, the “Thrombocytopenia grade 1-2, No.” value (850 mg cohort) was 2 and the “Thrombocytopenia grade 3-4, %” value (850 mg cohort) was 7.7%. The “Thrombocytopenia grade 3-4, No.” value (850 mg cohort) was 1, the “Transaminase Increased grade 1-2, %” value (850 mg cohort) was 23.1% and the “Transaminase Increased grade 1-2, No.” value (850 mg cohort) was 3. The “Transaminase Increased grade 3-4, %” value (850 mg cohort) was 15.4%, the “Transaminase Increased grade 3-4, No.” value (850 mg cohort) was 2 and the “Vomiting grade 3-4, %” value (850 mg cohort) was 7.7%. For the same compound, the “Vomiting grade 3-4, No.” value (850 mg cohort) was 1, the “Anemia grade 3-4, %” value (1000 mg cohort) was 33.3% and the “Anemia grade 3-4, No.” value (1000 mg cohort) was 1. For the same compound, the “Anorexia grade 1-2, %” value (1000 mg cohort) was 33.3%, the “Anorexia grade 1-2, No.” value (1000 mg cohort) was 1 and the “Fatigue grade 1-2, %” value (1000 mg cohort) was 33.3%. The “Fatigue grade 1-2, No.” value (1000 mg cohort) was 1, the “Fatigue grade 3-4, %” value (1000 mg cohort) was 33.3% and the “Fatigue grade 3-4, No.” value (1000 mg cohort) was 1. The “Hand-Food Syndrome grade 3-4, %” value (1000 mg cohort) was 33.3%, the “Hand-Food Syndrome grade 3-4, No.” value (1000 mg cohort) was 1 and the “Hypertension grade 1-2, %” value (1000 mg cohort) was 66.7%. For the same compound, the “Hypertension grade 1-2, No.” value (1000 mg cohort) was 2, the “Hypertension grade 3-4, %” value (1000 mg cohort) was 33.3% and the “Hypertension grade 3-4, No.” value (1000 mg cohort) was 1. The “Infection grade 1-2, %” value (1000 mg cohort) was 33.3%, the “Infection grade 1-2, No.” value (1000 mg cohort) was 1 and the “Mucosal ulcers grade 1-2, %” value (1000 mg cohort) was 66.7%. The “Mucosal ulcers grade 1-2, No.” value (1000 mg cohort) was 2, the “Neutropenia grade 1-2, %” value (1000 mg cohort) was 100% and the “Neutropenia grade 1-2, No.” value (1000 mg cohort) was 3. The “Pain grade 1-2, %” value (1000 mg cohort) was 33.3%, the “Pain grade 1-2, No.” value (1000 mg cohort) was 1 and the “Thrombocytopenia grade 1-2, %” value (1000 mg cohort) was 33.3%. For the same compound, the “Thrombocytopenia grade 1-2, No.” value (1000 mg cohort) was 1, the “Transaminase Increased grade 1-2, %” value (1000 mg cohort) was 33.3% and the “Transaminase Increased grade 1-2, No.” value (1000 mg cohort) was 1. The “Transaminase Increased grade 3-4, %” value (1000 mg cohort) was 33.3%, the “Transaminase Increased grade 3-4, No.” value (1000 mg cohort) was 1 and the “Albinism grade 1-2, %” value (Total, all cohorts) was 2.2%. The “Albinism grade 1-2, No.” value (Total, all cohorts) was 1, the “Anemia grade 1-2, %” value (Total, all cohorts) was 15.2% and the “Anemia grade 1-2, No.” value (Total, all cohorts) was 7. The “Anemia grade 3-4, %” value (Total, all cohorts) was 4.3%, the “Anemia grade 3-4, No.” value (Total, all cohorts) was 2 and the “Anorexia grade 1-2, %” value (Total, all cohorts) was 15.2%. The “Anorexia grade 1-2, No.” value (Total, all cohorts) was 7, the “Diarrhea grade 1-2, %” value (Total, all cohorts) was 13% and the “Diarrhea grade 1-2, No.” value (Total, all cohorts) was 6. For the same compound, the “Dyspnea grade 1-2, %” value (Total, all cohorts) was 2.2%, the “Dyspnea grade 1-2, No.” value (Total, all cohorts) was 1 and the “Fatigue grade 1-2, %” value (Total, all cohorts) was 21.7%. The “Fatigue grade 1-2, No.” value (Total, all cohorts) was 10, the “Fatigue grade 3-4, %” value (Total, all cohorts) was 4.3% and the “Fatigue grade 3-4, No.” value (Total, all cohorts) was 2. The “Hand-Food Syndrome grade 1-2, %” value (Total, all cohorts) was 32.6%, the “Hand-Food Syndrome grade 1-2, No.” value (Total, all cohorts) was 15 and the “Hand-Food Syndrome grade 3-4, %” value (Total, all cohorts) was 13%. The “Hand-Food Syndrome grade 3-4, No.” value (Total, all cohorts) was 6, the “Hemorrhage grade 1-2, %” value (Total, all cohorts) was 21.7% and the “Hemorrhage grade 1-2, No.” value (Total, all cohorts) was 10. The “Hemorrhage grade 3-4, %” value (Total, all cohorts) was 2.2%, the “Hemorrhage grade 3-4, No.” value (Total, all cohorts) was 1 and the “Hoarseness grade 1-2, %” value (Total, all cohorts) was 8.7%. The “Hoarseness grade 1-2, No.” value (Total, all cohorts) was 4, the “Hyperbilirubinemia grade 1-2, %” value (Total, all cohorts) was 6.5% and the “Hyperbilirubinemia grade 1-2, No.” value (Total, all cohorts) was 3. The “Hyperbilirubinemia grade 3-4, %” value (Total, all cohorts) was 2.2%, the “Hyperbilirubinemia grade 3-4, No.” value (Total, all cohorts) was 1 and the “Hypertension grade 1-2, %” value (Total, all cohorts) was 63%. For the same compound, the “Hypertension grade 1-2, No.” value (Total, all cohorts) was 29, the “Hypertension grade 3-4, %” value (Total, all cohorts) was 6.5% and the “Hypertension grade 3-4, No.” value (Total, all cohorts) was 3. For the same compound, the “Infection grade 1-2, %” value (Total, all cohorts) was 21.7%, the “Infection grade 1-2, No.” value (Total, all cohorts) was 10 and the “Mucosal ulcers grade 1-2, %” value (Total, all cohorts) was 17.4%. The “Mucosal ulcers grade 1-2, No.” value (Total, all cohorts) was 8, the “Mucosal ulcers grade 3-4, %” value (Total, all cohorts) was 4.3% and the “Mucosal ulcers grade 3-4, No.” value (Total, all cohorts) was 2. The “Neutropenia grade 1-2, %” value (Total, all cohorts) was 34.8%, the “Neutropenia grade 1-2, No.” value (Total, all cohorts) was 16 and the “Neutropenia grade 3-4, %” value (Total, all cohorts) was 8.7%. For the same compound, the “Neutropenia grade 3-4, No.” value (Total, all cohorts) was 4, the “Pain grade 1-2, %” value (Total, all cohorts) was 26.1% and the “Pain grade 1-2, No.” value (Total, all cohorts) was 12. The “Pain grade 3-4, %” value (Total, all cohorts) was 8.7%, the “Pain grade 3-4, No.” value (Total, all cohorts) was 4 and the “Proteinuria grade 1-2, %” value (Total, all cohorts) was 34.8%. For the same compound, the “Proteinuria grade 1-2, No.” value (Total, all cohorts) was 16, the “Proteinuria grade 3-4, %” value (Total, all cohorts) was 13% and the “Proteinuria grade 3-4, No.” value (Total, all cohorts) was 6. The “Rash grade 1-2, %” value (Total, all cohorts) was 6.5%, the “Rash grade 1-2, No.” value (Total, all cohorts) was 3 and the “Thrombocytopenia grade 1-2, %” value (Total, all cohorts) was 26.1%. The “Thrombocytopenia grade 1-2, No.” value (Total, all cohorts) was 12, the “Thrombocytopenia grade 3-4, %” value (Total, all cohorts) was 2.2% and the “Thrombocytopenia grade 3-4, No.” value (Total, all cohorts) was 1. The “Transaminase Increased grade 1-2, %” value (Total, all cohorts) was 28.3%, the “Transaminase Increased grade 1-2, No.” value (Total, all cohorts) was 13 and the “Transaminase Increased grade 3-4, %” value (Total, all cohorts) was 8.7%. The “Transaminase Increased grade 3-4, No.” value (Total, all cohorts) was 4, the “Vomiting grade 1-2, %” value (Total, all cohorts) was 8.7% and the “Vomiting grade 1-2, No.” value (Total, all cohorts) was 4. The “Vomiting grade 3-4, %” value (Total, all cohorts) was 2.2%, the “Vomiting grade 3-4, No.” value (Total, all cohorts) was 1 and the “hypertension, drug-related AE, all grades” value (all patients, N = 46) was 69.5%. For the same compound, the “proteinuria, drug-related AE, all grades” value (all patients, N = 46) was 47.8%, the “bleeding, patients” value (all patients, most at tumor sites) was 23.9% and the “patients who developed HFS that progressed to grade 3” value (in vivo) was “About 10%”.
